# In patent publication US10349662B2, “Insecticidal compositions and methods of using the same” (priority 2011, dated 2019):
# Values joined by “and” are separate entries in the source; they are usually repeats but may differ in a detail not shown here. Identical values can stand only once. Like-named read-outs stand apart in the source and are kept apart here.
# Tested on: Aedes aegypti mosquitoes
# Assay: Topical bioassay on adult female Aedes aegypti mosquitoes (knockdown 1 h, mortality 24 h; Colby calculation for combinations)
# Type: in vivo
# Excerpt: Components of a composition can have a synergistic or additive effect on insecticidal activity. Components have an additive effect when the effect of the combination is equal to the sum of the effects of each individual component. In contrast, components have a synergistic effect when the effect of the combination exceeds the sum of the effects of the components when applied individually. The effect (E) of a combination of two compounds may be calculated using the Colby formula (1) (S. R. Colby, “Calculating Synergistic and Antagonistic Responses of Herbicide Combinations”, Weeds 1967, 15, 20-22):
# If the actual insecticidal kill rate is the calculated value (E), then the action of the combination is additive. If the actual insecticidal kill rate exceeds the calculated value (E), then the action of the combination is super-additive, that is, a synergistic effect is present. If the insecticidal kill rate is lower than the calculated value (E), then the action of the combination is considered antagonistic.
# Adult female Aedes aegypti mosquitoes were segregated in 18″×18″ screen cages based on date of eclosion, therefore the exact age of the mosquitoes were known for bioassays.
# Ten female mosquitoes, aged four to six days after eclosion, were aspirated out of their respective cage and into a small glass jar. The mosquitoes were then anesthetized with CO2 gas for 30 seconds. After the adults were anesthetized, they were quickly placed on a plastic platform for treatment application. Treatments were serially diluted (using a BrandTech Scientific Transferpette S pipette (100-1000 μL), labeled centrifuge tubes, and a vortex mixer) from stocks of insecticides using reagent grade acetone as the diluent to concentrations as indicated for each treatment solution. A treatment solution may contain additional ingredients as indicated for each study.
# Using a Hamilton PB00-1 Repeating Dispenser with a Hamilton 25 Microliter Syringe, 0.5 μL of each treatment solution was applied to the thorax of each mosquito. Immediately following the application of the treatment, the mosquitoes were gently transferred into a clean paper cup and covered with screen. The mesh screen prevented the mosquitoes from escaping and allowed the specimens to be viewed for ratings. A cotton ball soaked with 10% sucrose solution was inserted into a side hole of each cup for hydration and nourishment. Each treatment variable in the study was replicated three times using separate cups for each replication.
# The untreated controls treatments were anesthetized for 30 seconds and gently transferred to the paper cups. The acetone treated control was treated exactly as described above except that the solution applied to each mosquito was undiluted acetone.
# The condition of the mosquitoes in each cup was recorded at one hour and 24 hours after initial treatment. The condition classifications used were (1) alive and flying, (2) alive and unable to fly, or (3) dead. The percent mortality for each treatment was calculated by summing the mortalities of each replicate then calculating the percent dead from the total number of mosquitoes.
# Where indicated, the mortality data were subjected to probit analysis using the Statistical Analysis System Version 9.1 program PROC PROBIT (SAS Institute (2003) PROC user's manual, version 9.1. SAS Institute, Cary, N.C.).
# [1] = active ingredient alone, 3%, adult, virgin, female Aedes aegypti
# [2] = Aedes aegypti, topical, 24 h, read-out: % MORTALITY AFTER 24 HRS, active ingredient alone, 3%, adult, virgin, female Aedes aegypti
# [3] = Aedes aegypti, topical, 24 h, read-out: % MORTALITY AFTER 24 HRS, single active, 0.01 μg
# [4] = Aedes aegypti, topical, 24 h, read-out: % MORTALITY AFTER 24 HRS, 0.005 μg
structure (smiles),measurement,setting,value
C=C(C)[C@@H]1CC=C(CO)CC1 [(S)-(−)-Perillyl alcohol],% MORTALITY AFTER 24 HRS,1%,0%
same,% MORTALITY AFTER 24 HRS,"2%, listed as (S)-(−)-perillyl alcohol",70%
same,% MORTALITY AFTER 24 HRS,"2%, listed as (S)-Perillyl alcohol",33%
same,% MORTALITY AFTER 24 HRS,"single active, 2%",80% and 67%
"CC1=CC(=O)CC(C)C1 (stereo not shown) [3,5-Dimethyl . . .]",% MORTALITY AFTER 24 HRS,[1],63%
"CC1=CCC(=C(C)C)CC1 [Terpinolene, terpinolene]",mortality at 3 %,[2],20%
C=C(C)[C@@H]1CC=C(C)C(=O)C1 [(R)-(−)-Carvone],% MORTALITY AFTER 24 HRS,3%,7%
same,% MORTALITY AFTER 24 HRS,"single active, 3%",13% and 10%
CC1=CC(=O)CC(C)C1 (stereo not shown) [3.5-Dimethyl . . .],% MORTALITY AFTER 24 HRS,[1],30%
CC1(C)C2CC=C(C=O)C1C2 [(1R)-(−)-Myrtenal],% MORTALITY AFTER 24 HRS,2%,10%
"CC1=CCCCC1 [1-Methyl-1-cyclohexene, 1-methyl-1-cyclohexene]",mortality at 3 %,[2],40%
"CN1COCN(Cc2cnc(Cl)s2)/C1=N\[N+](=O)[O-] [Thiamethoxam, thiamethoxam, reference compound]",mortality at 2.5 ng,"Aedes aegypti, topical, 24 h, read-out: % MORTALITY AFTER 24 HRS, 0.0025 μg",3%
same,mortality at 7.5 ng,"Aedes aegypti, topical, 24 h, read-out: % MORTALITY AFTER 24 HRS, single active, 0.0075 μg",23%
same,mortality at 10 ng,[3],7%
"OCC1CC=CCC1 (stereo not shown) [3-Cyclohexene-1-methanol, 3-cyclohexene-1-methanol]",mortality at 3 %,"Aedes aegypti, topical, 24 h, read-out: % MORTALITY AFTER 24 HRS, single active, 3%",57%
"O=[N+]([O-])NC1=NCCN1Cc1ccc(Cl)nc1 [Imidacloprid, imidacloprid, reference compound]",mortality at 5 ng,[4],60%
same,mortality at 2.5 ng,"Aedes aegypti, topical, 24 h, read-out: % MORTALITY AFTER 24 HRS, single active, 0.0025 μg",83%
same,mortality at 3 ng,"Aedes aegypti, topical, 24 h, read-out: % MORTALITY AFTER 24 HRS, single active, 0.003 μg",23%
same,mortality at 5 ng,"Aedes aegypti, topical, 24 h, read-out: % MORTALITY AFTER 24 HRS, single active, 0.005 μg",30%
"CN/C(=N\[N+](=O)[O-])NCc1cnc(Cl)s1 [Clothianidin, clothianidin, reference compound]",mortality at 5 ng,[4],7%
same,mortality at 10 ng,"Aedes aegypti, topical, 24 h, read-out: % MORTALITY AFTER 24 HRS, 0.01 μg",50%
same,mortality at 25 ng,"Aedes aegypti, topical, 24 h, read-out: % MORTALITY AFTER 24 HRS, 0.025 μg",40%
same,mortality at 10 ng,[3],47%
same,mortality at 15 ng,"Aedes aegypti, topical, 24 h, read-out: % MORTALITY AFTER 24 HRS, single active, 0.015 μg",0%
same,mortality at 20 ng,"Aedes aegypti, topical, 24 h, read-out: % MORTALITY AFTER 24 HRS, single active, 0.02 μg",43%
CC1CC=CCC1 (stereo not shown) [4-Methylcyclohexene],mortality at 3 %,[2],0%
C=C(C)[C@H]1CC=C(C)C(=O)C1 [(S)-(−)-Carvone],% MORTALITY AFTER 24 HRS,3%,20%
"C#CCC1=C(C)C(OC(=O)C2C(C=C(C)C)C2(C)C)CC1=O (stereo not shown) [Prallethrin, prallethrin, reference compound]",mortality at 750 pg,"Aedes aegypti, topical, 24 h, read-out: % MORTALITY AFTER 24 HRS, 0.00075 μg",37%
same,mortality at 300 pg,"Aedes aegypti, topical, 24 h, read-out: % MORTALITY AFTER 24 HRS, insecticide alone, 0.0003 μg, adult, virgin, female Aedes aegypti",7%
same,mortality at 400 pg,"Aedes aegypti, topical, 24 h, read-out: % MORTALITY AFTER 24 HRS, insecticide alone, 0.0004 μg, adult, virgin, female Aedes aegypti",40%
same,mortality at 750 pg,"Aedes aegypti, topical, 24 h, read-out: % MORTALITY AFTER 24 HRS, single active, 0.00075 μg",20%
